Experimental data as given in patent US10934302B1, “SHP2 phosphatase inhibitors and methods of use thereof” (Relay Therapeutics, Inc., priority 2018, dated 2021).

These compounds were tested against SHP2 (Homo sapiens (Human), UniProt Q06124) (assay: SHP2 allosteric inhibition assay (DiFMUP prompt fluorescence)). Conditions: 0.25 nM SHP2 activated with 0.5 μM peptide IRS1_pY1172(dPEG8)pY1222; substrate DiFMUP.
Assay type: biochemical

SMILES	IC50 [µM]
Cc1nc(SC2CCCC2)cnc1N1CCC2(CC1)Cc1ccccc1[C@H]2N [Example 249, (3S)-1′-[5-(cyclopentylsulfanyl)-3-methylpyrazin-2-yl]-1,3-dihydrospiro[indene-2,4′-piperidin]-3-amine]	≤ 0.05
N[C@@H]1c2ccccc2CC12CCN(c1ncc(N3CCCc4ccccc43)nc1CO)CC2 [Example 212, {3-[(3S)-3-amino-1,3-dihydrospiro[indene-2,4′-piperidin]-1′-yl]-6-(1,2,3,4-tetrahydroquinolin-1-yl)pyrazin-2-yl}methanol]	≤ 0.05
Cc1nc(Sc2ccnc(N)c2Cl)cnc1N1CCC2(CC1)Cc1ccccc1[C@H]2N [Example 84, (S)-1′-(5-((2-amino-3-chloropyridin-4-yl)thio)-3-methylpyrazin-2-yl)-1,3-dihydrospiro[indene-2,4′-piperidin]-1-amine]	≤ 0.05
Nc1nccc(Sc2cnc(N3CCC4(CC3)Cc3ccccc3[C@H]4N)cn2)c1Cl [Example 63]	0.05 to 1
N[C@@H]1c2ccccc2CC12CCN(c1cnc(SC3CCC3)cn1)CC2 [Example 236]	≤ 0.05
Nc1cnc(CO)c(N2CCC3(CC2)Cc2ccccc2[C@H]3N)n1 [Example 123, {5-amino-3-[(3S)-3-amino-1,3-dihydrospiro[indene-2,4′-piperidin]-1′-yl]pyrazin-2-yl}methanol]	≤ 0.05
N[C@@H]1c2ccccc2CC12CCN(c1cnc(OCC3CC3)cn1)CC2 [Example 171, (3S)-1′-[5-(cyclopropylmethoxy)pyrazin-2-yl]-1,3-dihydrospiro[indene-2,4′-piperidin]-3-amine]	≤ 0.05
Cn1cnc2ccnc(N3CCC4(CC3)Cc3ccccc3[C@H]4N)c21 [Example 183]	> 10
N[C@@H]1c2ccccc2CC12CCN(c1cnc(N3CCCc4ncccc43)cn1)CC2 [Example 146, (3S)-1′-[5-(1,2,3,4-tetrahydro-1,5-naphthyridin-1-yl)pyrazin-2-yl]-1,3-dihydrospiro[indene-2,4′-piperidin]-3-amine]	≤ 0.05
N[C@H]1c2ccccc2OC12CCN(c1cnc3c(N4CCCc5ncccc54)n[nH]c3n1)CC2 [Example 118, (S)-1′-(3-(3,4-dihydro-1,5-naphthyridin-1(2H)-yl)-1H-pyrazolo[3,4-b]pyrazin-6-yl)-3H-spiro[benzofuran-2,4′-piperidin]-3-amine]	≤ 0.05
N#CCc1n[nH]c2nc(N3CCC4(CC3)Cc3ccccc3[C@H]4N)c(CO)nc12 [Example 153, 2-{6-[(3S)-3-amino-1,3-dihydrospiro[indene-2,4′-piperidin]-1′-yl]-5-(hydroxymethyl)-1H-pyrazolo[3,4-b]pyrazin-3-yl}acetonitrile]	≤ 0.05
Cc1c(N2CCCc3ccccc32)nc2sc(N3CCC4(CC3)Cc3ccccc3[C@H]4N)nn12 [Example 207]	1 to 10
N[C@@H]1c2cc(F)ccc2OC12CCN(c1cnc(SCC3CC3)cn1)CC2 [Example 239]	0.05 to 1
N[C@@H]1c2ccccc2CC12CCN(c1ncc(-c3ccccc3Cl)s1)CC2 [Example 145, (S)-1′-(5-(2-chlorophenyl)thiazol-2-yl)-1,3-dihydrospiro[indene-2,4′-piperidin]-1-amine]	≤ 0.05
N[C@@H]1c2ccccc2CC12CCN(c1nc3[nH]nc(N4CCCc5ncccc54)c3nc1C(F)F)CC2 [Example 140, (S)-1′-(5-(difluoromethyl)-3-(3,4-dihydro-1,5-naphthyridin-1(2H)-yl)-1H-pyrazolo[3,4-b]pyrazin-6-yl)-1,3-dihydrospiro[indene-2,4′-piperidin]-1-amine]	≤ 0.05
Nc1nccc(Sc2ccc(N3CCC4(CC3)Cc3cc(F)ccc3[C@H]4N)cn2)c1Cl [Example 217]	≤ 0.05
N[C@H]1c2ccccc2C[C@]12CC[C@H](c1ccc(Sc3ccnc(Cl)c3Cl)nc1)CC2 [Example 280, (1s,1′R,4S)-4-(6-((2,3-dichloropyridin-4-yl)thio)pyridin-3-yl)-1′,3′-dihydrospiro[cyclohexane-1,2′-inden]-1′-amine]	≤ 0.05
COc1cccc(-n2nccc2C(=O)N2CCC3(CC2)Cc2ccccc2[C@H]3N)c1 [Example 288, (1S)-1′-[1-(3-methoxyphenyl)-1H-pyrazole-5-carbonyl]-1,3-dihydrospiro[indene-2,4′-piperidin]-1-amine]	> 10
Nc1nccc(Sc2ccc(N3CCC4(CC3)Cc3ccccc3[C@H]4N)c(CO)n2)c1Cl [Example 258, {3-[(3S)-3-amino-1,3-dihydrospiro[indene-2,4′-piperidin]-1′-yl]-6-[(2-amino-3-chloropyridin-4-yl)sulfanyl]pyridin-2-yl}methanol]	≤ 0.05
N[C@@H]1c2ccccc2OC12CCN(c1nc3[nH]ncc3nc1CO)CC2 [Example 159, {6-[(3R)-3-amino-3H-spiro[1-benzofuran-2,4′-piperidin]-1′-yl]-1H-pyrazolo[3,4-b]pyrazin-5-yl}methanol]	≤ 0.05
Cc1nc(N2CCC3(CC2)Cc2ccccc2[C@H]3N)c(C)nc1Sc1ccnc(N)c1Cl [Example 215]	≤ 0.05
N[C@@H]1c2ccccc2CC12CCN(c1nccnc1CO)CC2 [Example 120, {3-[(3S)-3-amino-1,3-dihydrospiro[indene-2,4′-piperidin]-1′-yl]pyrazin-2-yl}methanol]	≤ 0.05
CS(=O)(=O)c1cccc2c1CCCN2c1n[nH]c2nc(N3CCC4(CC3)Cc3cccc(F)c3[C@H]4N)cnc12 [Example 59]	≤ 0.05

The remaining lines, values ahead:

IC50 [µM]	SMILES
≤ 0.05	Cc1n[nH]c2nc(N3CCC4(CC3)Cc3ccccc3[C@H]4N)c(CO)nc12 [Example 156, {6-[(3S)-3-amino-1,3-dihydrospiro[indene-2,4′-piperidin]-1′-yl]-3-methyl-1H-pyrazolo[3,4-b]pyrazin-5-yl}methanol]
≤ 0.05	N[C@@H]1c2ccccc2CC12CCN(c1nc3[nH]nc(N4CCCCC4)c3nc1C1CC1)CC2 [Example 255, (3S)-1′-[5-cyclopropyl-3-(piperidin-1-yl)-1H-pyrazolo[3,4-b]pyrazin-6-yl]-1,3-dihydrospiro[indene-2,4′-piperidin]-3-amine]
> 10	Cn1cc(-c2ccc3c(n2)CCCN3c2n[nH]c3nc(N4CCC5(CC4)Cc4ccc(F)cc4[C@H]5N)cnc23)cn1 [Example 40]
≤ 0.05	N[C@@H]1c2ccccc2CC12CCN(c1ncc(SCC3CC3)c(=O)[nH]1)CC2 [Example 237]
0.05 to 1	N[C@@H]1c2ccccc2CC12CCN(c1cnc3c(-c4ccnc(Cl)c4Cl)n[nH]c3n1)CC2 [Example 70]
1 to 10	N[C@H]1c2ccccc2C[C@@]12CC=C(c1cnc3c(N4CCCc5ncccc54)n[nH]c3n1)CC2 (single isomer, unassigned) [Example 172]
1 to 10	N[C@@H]1c2ccccc2CC12CCN(c1nccn3ccnc13)CC2 [Example 180]
≤ 0.05	N[C@@H]1c2ccccc2CC12CCN(c1cc(OC(F)F)c3nccn3c1)CC2 [Example 202]
≤ 0.05	Cc1nc(N2CCC3(CC2)Cc2ccccc2[C@H]3N)c(CO)nc1-c1cccc(Cl)c1Cl [Example 20, (S)-(3-(1-amino-1,3-dihydrospiro[indene-2,4′-piperidin]-1′-yl)-6-(2,3-dichlorophenyl)-5-methylpyrazin-2-yl)methanol]
≤ 0.05	N#Cc1ccc2c(c1)N([C@H]1C[C@H](O)C1)CCN2c1n[nH]c2nc(N3CCC4(CC3)Cc3ccccc3C4N)cnc12 (some centres unmarked) [Example 35]
≤ 0.05	N[C@@H]1c2ccccc2CC12CCN(c1cnc(Cc3ccnc(Cl)c3Cl)cn1)CC2 [Example 157, (3S)-1′-{5-[(2,3-dichloropyridin-4-YL)methyl]pyrazin-2-yl}-1,3-dihydrospiro[indene-2,4′-piperidin]-3-amine]
> 10	Nc1nccc(Sc2ccc(N3CCC4(CC3)Oc3ccc(F)cc3[C@H]4N)cn2)c1Cl [Example 225]
≤ 0.05	N[C@@H]1c2ccccc2CC12CCN(c1cnc(Sc3cccc(Cl)c3Cl)cn1)CC2 [Example 147, (S)-1′-(5-((2,3-dichlorophenyl)thio)pyrazin-2-yl)-1,3-dihydrospiro[indene-2,4′-piperidin]-1-amine]
≤ 0.05	N#Cc1n[nH]c2nc(N3CCC4(CC3)Cc3ccccc3[C@H]4N)c(CO)nc12 [Example 154, 6-[(3S)-3-amino-1,3-dihydrospiro[indene-2,4′-piperidin]-1′-yl]-5-(hydroxymethyl)-1H-pyrazolo[3,4-b]pyrazine-3-carbonitrile]
≤ 0.05	Nc1nccc(Oc2n[nH]c3nc(N4CCC5(CC4)Cc4ccccc4[C@@H]5N)cnc23)c1Cl (single isomer, unassigned) [Example 136]
≤ 0.05	CN(C)C(=O)c1ccc2c(c1)[C@@H](N)C1(CCN(c3cnc4c(N5CCCc6ncccc65)n[nH]c4n3)CC1)C2 [Example 27]
≤ 0.05	N[C@@H]1c2ccccc2CC12CCN(c1cnc(SCc3cccc(Cl)n3)cn1)CC2 [Example 263, (S)-1′-(5-(((6-chloropyridin-2-yl)methyl)thio)pyrazin-2-yl)-1,3-dihydrospiro[indene-2,4′-piperidin]-1-amine]
≤ 0.05	N#Cc1nc(Sc2ccnc(Cl)c2Cl)cnc1N1CCC2(CC1)Cc1ccccc1[C@H]2N [Example 220]
≤ 0.05	C[C@H](O)c1nc2c(N3CCCc4ncccc43)n[nH]c2nc1N1CCC2(CC1)Cc1ccccc1[C@H]2N (single isomer, unassigned) [Example 142]
≤ 0.05	N[C@@H]1c2ccccc2CC12CCN(c1cnc3c(-c4cccc5ncccc45)n[nH]c3n1)CC2 [Example 68]
≤ 0.05	N[C@@H]1c2cnccc2CC12CCN(c1cnc3c(N4CCCc5ncccc54)n[nH]c3n1)CC2 [Example 50]
≤ 0.05	Cn1ccc(Sc2cnc(N3CCC4(CC3)Cc3ccccc3[C@H]4N)cn2)c(Cl)c1=O [Example 132, 4-({5-[(3S)-3-amino-1,3-dihydrospiro[indene-2,4′-piperidin]-1′-yl]pyrazin-2-yl}sulfanyl)-3-chloro-1-methyl-1,2-dihydropyridin-2-one]
> 10	N[C@@H]1c2ccccc2CC12CCN(c1cnc(N3CCCC[C@H]3c3ccccc3)cn1)CC2 (racemic) [Example 176]
≤ 0.05	Cc1nc(N2CCC3(CC2)Cc2ccccc2[C@H]3N)cnc1N1CCCc2ncccc21 [Example 197]
